What was measured:
Settings in all cases: 48 h
P12-Ichikawa [1] = test: AUC of viability dose-response curve (% viability x log10 dose units); higher = less sensitive
In short: (§1)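 Leukemia cells adapted to each medium were seeded at 500 or 1000 cells/well in 1536-well plates and dosed with library compounds in DMSO at 11 threefold doses from 47 μM to 0.79 nM for 48 h at 37°C. CellTiter-Glo One luminescence was normalised per plate to DMSO and cell-free wells, then fitted with a four-parameter log-logistic model over log10 doses. Area under the curve was taken from this fit by the trapezoidal rule, with curves above full viability scaled and curves failing quality control removed.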

SEM cells [2] = test: as above
In short: as §1

NOMO1 [3] = test: as above
In short: as §1

P12-Ichikawa [4] = test: cell viability relative to DMSO control; higher = less cytotoxic
In short: (§2)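 NOMO1 or SEM (500 cells/well) or P12-Ichikawa (1000 cells/well) leukemia cells were adapted for at least four passages in each medium. They were seeded in 1536-well plates (5 μl) and pin-dosed with library compounds in DMSO over an 11-point threefold series, 47 μM to 0.79 nM. CellTiter-Glo One luminescence was read after 48 h at 37°C. Viability is the per-plate percentage relative to DMSO wells, with cell-free wells as background.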

SEM cells [5] = test: as above
In short: as §2

NOMO1 [6] = test: as above
In short: as §2

C[C@H](NC(=O)c1sccc1OCc1ccc(Cl)cc1)c1ccccc1
AUC of viability dose-response curve
Settings	NOMO1 [3]	P12-Ichikawa [1]	SEM cells [2]
HPLM + 10% dialyzed FBS	382	407	408
RPMI 5 mM glucose + 10% FBS	388	398	449
RPMI 5 mM glucose + 10% dialyzed FBS	394	407	450

cell viability [%]
Settings	NOMO1 [6]	P12-Ichikawa [4]	SEM cells [5]
HPLM + 10% dialyzed FBS, 0.000781 µM	80.8	97.3	98.8
HPLM + 10% dialyzed FBS, 0.00234 µM	88.2	87.7	94.4
HPLM + 10% dialyzed FBS, 0.00702 µM	80	88.8	82.9
HPLM + 10% dialyzed FBS, 0.0211 µM	77.6	83.9	88.2
HPLM + 10% dialyzed FBS, 0.0632 µM	91.5	84.4	94.8
HPLM + 10% dialyzed FBS, 0.19 µM	87.5	78	83.4
HPLM + 10% dialyzed FBS, 0.569 µM	69.1	86.3	91.1
HPLM + 10% dialyzed FBS, 1.71 µM	68.5	87.2	92.5
HPLM + 10% dialyzed FBS, 5.12 µM	86.9	81.2	69.5
HPLM + 10% dialyzed FBS, 15.4 µM	80.1	86.2	80.1
HPLM + 10% dialyzed FBS, 46.1 µM	69	82.7	51
RPMI 5 mM glucose + 10% FBS, 0.000781 µM	85.6	84.7	96.9
RPMI 5 mM glucose + 10% FBS, 0.00234 µM	83.6	84.5	90.9
RPMI 5 mM glucose + 10% FBS, 0.00702 µM	72.4	80.8	92.5
RPMI 5 mM glucose + 10% FBS, 0.0211 µM	82.2	85.2	106
RPMI 5 mM glucose + 10% FBS, 0.0632 µM	94.3	92	112
RPMI 5 mM glucose + 10% FBS, 0.19 µM	77.9	86.4	95.6
RPMI 5 mM glucose + 10% FBS, 0.569 µM	83.1	81	85.1
RPMI 5 mM glucose + 10% FBS, 1.71 µM	78.7	85	112
RPMI 5 mM glucose + 10% FBS, 5.12 µM	77.7	74.5	73.3
RPMI 5 mM glucose + 10% FBS, 15.4 µM	81.1	83.5	115
RPMI 5 mM glucose + 10% FBS, 46.1 µM	77.5	78	20.4
RPMI 5 mM glucose + 10% dialyzed FBS, 0.000781 µM	91.3	84.6	107
RPMI 5 mM glucose + 10% dialyzed FBS, 0.00234 µM	83.6	90	97.3
RPMI 5 mM glucose + 10% dialyzed FBS, 0.00702 µM	77.9	91.9	94.7
RPMI 5 mM glucose + 10% dialyzed FBS, 0.0211 µM	90.7	88.3	94.1
RPMI 5 mM glucose + 10% dialyzed FBS, 0.0632 µM	82	88.4	101
RPMI 5 mM glucose + 10% dialyzed FBS, 0.19 µM	76.2	83.2	101
RPMI 5 mM glucose + 10% dialyzed FBS, 0.569 µM	66.8	91.1	97.9
RPMI 5 mM glucose + 10% dialyzed FBS, 1.71 µM	82.6	77.1	101
RPMI 5 mM glucose + 10% dialyzed FBS, 5.12 µM	90.8	74.5	70.1
RPMI 5 mM glucose + 10% dialyzed FBS, 15.4 µM	77.7	82.1	99.6
RPMI 5 mM glucose + 10% dialyzed FBS, 46.1 µM	87.8	86	59.3

C[C@@H]1COCCN1c1cc(C2([S@+](C)(=N)[O-])CC2)nc(-c2ccnc3[nH]ccc23)n1
AUC of viability dose-response curve
Settings	NOMO1 [3]	P12-Ichikawa [1]	SEM cells [2]
HPLM + 10% dialyzed FBS	358	380	333
RPMI 5 mM glucose + 10% FBS	390	381	335
RPMI 5 mM glucose + 10% dialyzed FBS	382	368	336

cell viability [%]
Settings	NOMO1 [6]	P12-Ichikawa [4]	SEM cells [5]
HPLM + 10% dialyzed FBS, 0.000781 µM	94.9	99.7	90.4
HPLM + 10% dialyzed FBS, 0.00234 µM	116	103	100
HPLM + 10% dialyzed FBS, 0.00702 µM	119	106	98.5
HPLM + 10% dialyzed FBS, 0.0211 µM	121	110	77.8
HPLM + 10% dialyzed FBS, 0.0632 µM	127	110	102
HPLM + 10% dialyzed FBS, 0.19 µM	120	109	93.4
HPLM + 10% dialyzed FBS, 0.569 µM	91.9	99.8	95.3
HPLM + 10% dialyzed FBS, 1.71 µM	67.7	92.3	40.6
HPLM + 10% dialyzed FBS, 5.12 µM	34.5	47.5	21.5
HPLM + 10% dialyzed FBS, 15.4 µM	27.6	15.7	21.5
HPLM + 10% dialyzed FBS, 46.1 µM	24.6	7.87	14
RPMI 5 mM glucose + 10% FBS, 0.000781 µM	102	104	–
RPMI 5 mM glucose + 10% FBS, 0.00234 µM	114	105	–
RPMI 5 mM glucose + 10% FBS, 0.00702 µM	114	118	–
RPMI 5 mM glucose + 10% FBS, 0.0211 µM	119	114	–
RPMI 5 mM glucose + 10% FBS, 0.0632 µM	115	109	–
RPMI 5 mM glucose + 10% FBS, 0.19 µM	130	114	–
RPMI 5 mM glucose + 10% FBS, 0.569 µM	114	104	–
RPMI 5 mM glucose + 10% FBS, 1.71 µM	103	90.7	–
RPMI 5 mM glucose + 10% FBS, 5.12 µM	59.4	55	–
RPMI 5 mM glucose + 10% FBS, 15.4 µM	24.5	19.7	–
RPMI 5 mM glucose + 10% FBS, 46.1 µM	17.9	7.94	–
RPMI 5 mM glucose + 10% dialyzed FBS, 0.000781 µM	97.6	99.4	81.8
RPMI 5 mM glucose + 10% dialyzed FBS, 0.00234 µM	107	110	96
RPMI 5 mM glucose + 10% dialyzed FBS, 0.00702 µM	114	117	114
RPMI 5 mM glucose + 10% dialyzed FBS, 0.0211 µM	119	113	74.4
RPMI 5 mM glucose + 10% dialyzed FBS, 0.0632 µM	122	123	130
RPMI 5 mM glucose + 10% dialyzed FBS, 0.19 µM	120	128	102
RPMI 5 mM glucose + 10% dialyzed FBS, 0.569 µM	116	109	66.3
RPMI 5 mM glucose + 10% dialyzed FBS, 1.71 µM	98.2	84.7	42.4
RPMI 5 mM glucose + 10% dialyzed FBS, 5.12 µM	39	40.8	24.8
RPMI 5 mM glucose + 10% dialyzed FBS, 15.4 µM	22	16.5	20.6
RPMI 5 mM glucose + 10% dialyzed FBS, 46.1 µM	22.3	8.66	10.7
